In ChEMBL document CHEMBL1155954, “A concise approach to 1,11-didechloro-6-methyl-4'-O-demethyl rebeccamycin and its binding to human serum albumin: fluorescence spectroscopy and molecular modeling method” (Bioorg Med Chem, 2008):

Legend:
Albumin [1] = molecular target: T1, Albumin (Homo sapiens, UniProt P02768); assay: Binding affinity to human serum albumin at 289 kelvin by fluorescence quenching measurement in presence of Mg2+ ions; assay type: ADME; conditions: isolated protein
Albumin [2] = molecular target: T1, Albumin; assay: Binding affinity to human serum albumin at 289 kelvin by fluorescence quenching measurement in presence of Hg2+ ions; assay type: ADME; conditions: isolated protein
Albumin [3] = molecular target: T1, Albumin; assay: Binding affinity to human serum albumin at 299 kelvin by fluorescence quenching measurement; assay type: ADME; conditions: isolated protein
Albumin [4] = molecular target: T1, Albumin; assay: Binding affinity to human serum albumin at 289 kelvin by fluorescence quenching measurement in presence of Al3+ ions; assay type: ADME; conditions: isolated protein
Albumin [5] = molecular target: T1, Albumin; assay: Binding affinity to human serum albumin at 289 kelvin by fluorescence quenching measurement in presence of [NO3]- ions; assay type: ADME; conditions: isolated protein
Albumin [6] = molecular target: T1, Albumin; assay: Binding affinity to human serum albumin at 289 kelvin by fluorescence quenching measurement in presence of F- ions; assay type: ADME; conditions: isolated protein
Albumin [7] = molecular target: T1, Albumin; assay: Binding affinity to human serum albumin at 309 kelvin by fluorescence quenching measurement; assay type: ADME; conditions: isolated protein
Albumin [8] = molecular target: T1, Albumin; assay: Binding affinity to human serum albumin at 289 kelvin by fluorescence quenching measurement in presence of Bi3+ ions; assay type: ADME; conditions: isolated protein
Albumin [9] = molecular target: T1, Albumin; assay: Binding affinity to human serum albumin at 289 kelvin by fluorescence quenching measurement in presence of [CO3]2- ions; assay type: ADME; conditions: isolated protein
Albumin [10] = molecular target: T1, Albumin; assay: Binding affinity to human serum albumin at 289 kelvin by fluorescence quenching measurement in presence of Zn2+ ions; assay type: ADME; conditions: isolated protein
Albumin [11] = molecular target: T1, Albumin; assay: Binding affinity to human serum albumin at 289 kelvin by fluorescence quenching measurement in presence of K+ ions; assay type: ADME; conditions: isolated protein
Albumin [12] = molecular target: T1, Albumin; assay: Binding affinity to human serum albumin at 289 kelvin by fluorescence quenching measurement in presence of Ni2+ ions; assay type: ADME; conditions: isolated protein
Albumin [13] = molecular target: T1, Albumin; assay: Binding affinity to human serum albumin at 289 kelvin by fluorescence quenching measurement in presence of Fe3+ ions; assay type: ADME; conditions: isolated protein
Albumin [14] = molecular target: T1, Albumin; assay: Binding affinity to human serum albumin at 289 kelvin by fluorescence quenching measurement in presence of Cd2+ ions; assay type: ADME; conditions: isolated protein
Albumin [15] = molecular target: T1, Albumin; assay: Binding affinity to human serum albumin at 289 kelvin by fluorescence quenching measurement in presence of Ca2+ ions; assay type: ADME; conditions: isolated protein
Albumin [16] = molecular target: T1, Albumin; assay: Binding affinity to human serum albumin at 289 kelvin by fluorescence quenching measurement in presence of Pb2+ ions; assay type: ADME; conditions: isolated protein
Albumin [17] = molecular target: T1, Albumin; assay: Binding affinity to human serum albumin at 289 kelvin by fluorescence quenching measurement in presence of [SO4]2- ions; assay type: ADME; conditions: isolated protein
Albumin [18] = molecular target: T1, Albumin; assay: Binding affinity to human serum albumin at 289 kelvin by fluorescence quenching measurement; assay type: ADME; conditions: isolated protein
Albumin [19] = molecular target: T1, Albumin; assay: Binding affinity to human serum albumin at 289 kelvin by fluorescence quenching measurement in presence of [Sio3]2- ions; assay type: ADME; conditions: isolated protein
K562 = assay: Anticancer activity against human K562 cells; assay type: functional, cell-based

T1 sequence (P02768 whole entry): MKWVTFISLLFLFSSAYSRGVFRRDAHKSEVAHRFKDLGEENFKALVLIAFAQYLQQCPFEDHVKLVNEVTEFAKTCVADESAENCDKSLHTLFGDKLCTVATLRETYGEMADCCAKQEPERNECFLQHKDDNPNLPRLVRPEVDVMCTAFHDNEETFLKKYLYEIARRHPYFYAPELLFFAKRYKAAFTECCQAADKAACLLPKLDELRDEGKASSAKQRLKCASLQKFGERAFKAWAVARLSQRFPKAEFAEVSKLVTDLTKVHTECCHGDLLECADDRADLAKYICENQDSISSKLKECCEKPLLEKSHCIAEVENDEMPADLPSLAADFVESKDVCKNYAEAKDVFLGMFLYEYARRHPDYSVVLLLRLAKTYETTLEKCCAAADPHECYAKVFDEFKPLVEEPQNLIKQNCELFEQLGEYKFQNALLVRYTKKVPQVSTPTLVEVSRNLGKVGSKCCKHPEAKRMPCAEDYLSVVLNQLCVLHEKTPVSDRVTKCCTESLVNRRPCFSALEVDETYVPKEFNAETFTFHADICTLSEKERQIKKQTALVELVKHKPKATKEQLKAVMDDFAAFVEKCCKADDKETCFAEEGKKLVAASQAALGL

SMILES	K (Albumin [1])	K (Albumin [2])	K (Albumin [3])	K (Albumin [4])	K (Albumin [5])	K (Albumin [6])	K (Albumin [7])	K (Albumin [8])	K (Albumin [9])	K (Albumin [10])	K (Albumin [11])	K (Albumin [12])	K (Albumin [13])	K (Albumin [14])	K (Albumin [15])	K (Albumin [16])	K (Albumin [17])	K (Albumin [18])	K (Albumin [19])	IC50 (K562)
CN1C(=O)c2c(c3c4ccccc4n([C@@H]4O[C@H](CO)[C@@H](O)[C@H](O)[C@H]4O)c3c3[nH]c4ccccc4c23)C1=O	4.76 ×10⁶ L/mol	8.41 ×10⁶ L/mol	195000 L/mol	3.93 ×10⁶ L/mol	3.4 ×10⁶ L/mol	8.78 ×10⁶ L/mol	145000 L/mol	7.01 ×10⁶ L/mol	3.48 ×10⁶ L/mol	7.12 ×10⁶ L/mol	8.9 ×10⁶ L/mol	5.32 ×10⁶ L/mol	3.48 ×10⁶ L/mol	4.56 ×10⁶ L/mol	7.17 ×10⁶ L/mol	4.87 ×10⁶ L/mol	4.33 ×10⁶ L/mol	231000 L/mol	6.68 ×10⁶ L/mol	
CO[C@H]1[C@H](O)[C@@H](O)[C@H](n2c3c(Cl)cccc3c3c4c(c5c6cccc(Cl)c6[nH]c5c32)C(=O)NC4=O)O[C@@H]1CO [REBECCAMYCIN]																				4 µM
